Measured values as given in patent US20050256037A1, “Antibacterial amide macrocyles” (Bayer HealthCare AG, priority 2003, published 2005).
Converted amounts (≈) assume the structure as drawn. Structures can show the parent of a compound that is named as a salt. Where two headings read alike, the source gives them in different places. Marks after values point to notes of the source that are not given here.

What was measured:
Assay type in all cases: cell-based
S. aureus E33 [1] = test: MIC, liquid dilution test in minimal medium (96-well microtitre plate); conditions: Staphylococcus aureus
Procedure: (§1) Determination of the Minimum Inhibitory Concentration (MIC)
(§2) The minimum inhibitory concentration (MIC) is the minimum concentration of an antibiotic with which the growth of a test microbe is inhibited over 18-24 h. The inhibitor concentration can in these cases be determined by standard microbiological methods (see, for example, The National Committee for Clinical Laboratory Standards. Methods for dilution antimicrobial susceptibility tests for bacteria that grow aerobically; approved standard-fifth edition. NCCLS document M7-A5 [ISBN 1-56238-394-9]. NCCLS, 940 West Valley Road, Suite 1400, Wayne, Pa. 19087-1898 USA, 2000). The MIC of the compounds of the invention is determined in the liquid dilution test on the 96-well microtitre plate scale. The bacterial microbes are cultivated in a minimal medium (18.5 mM Na2HPO4, 5.7 mM KH2PO4, 9.3 mM NH4Cl, 2.8 mM MgSO4, 17.1 mM NaCl, 0.033 μg/ml thiamine hydrochloride, 1.2 μg/ml nicotinic acid, 0.003 μg/ml biotin, 1% glucose, 25 μg/ml of each proteinogenic amino acid with the exception of phenylalanine; [H.-P. Kroll; unpublished]) with addition of 0.4% BH broth (test medium). In the case of Enterococcus faecium L4001, heat-inactivated fetal calf serum (FCS; GibcoBRL, Germany) is added to the test medium in a final concentration of 10%. Overnight cultures of the test microbes are diluted to an OD578 of 0.001 (to 0.01 in the case of enterococci) in fresh test medium, and incubated 1:1 with dilutions of the test substances (1:2 dilution steps) in test medium (200 μl final volume). The cultures are incubated at 37° C. for 18-24 hours; enterococci in the presence of 5% CO2.
(§3) The lowest substance concentration in each case at which bacterial growth was no longer visible is defined as the MIC. […] The compounds show a graded antibacterial effect against most of the test microbes.

E. faecium L4001 [2] = test: as above; conditions: Enterococcus faecium
Procedure: as §1, §2, §3

S. aureus T17 [3] = test: MIC, alternative method: agar dilution test with 20% defibrinated horse blood; conditions: Staphylococcus aureus
Procedure: (§4) Alternative Method for Determining the Minimum Inhibitory Concentration (MIC)
(§5) The minimum inhibitory concentration (MIC) is the minimum concentration of an antibiotic with which the growth of a test microbe is inhibited over 18-24 h. The inhibitor concentration can be determined by standard microbiological methods using modified medium in an agar dilution test (see, for example, the National Committee for Clinical Laboratory Standards. Methods for dilution antimicrobial susceptibility tests for bacteria that grow aerobically; approved standard-fifth edition. NCCLS document M7-A5 [ISBN 1-56238-394-9]. NCCLS, 940 West Valley Road, Suite 1400, Wayne, Pa. 19087-1898 USA, 2000). The bacterial microbes are cultivated on 1.5% agar plates containing 20% defibrinated horse blood. The test microbes, which are incubated on Columbia blood agar plates (Becton-Dickinson) overnight, are diluted in PBS, adjusted to a microbe count of about 5×10^5 microbes/ml and placed as drops (1-3 μl) on test plates. The test substances contain various dilutions of the test substances (1:2 dilution stages). The cultures are incubated at 37° C. in the presence of 5% CO2 for 18-24 hours.
(§6) The lowest concentration of each substance at which no visible bacterial growth occurs is defined as the MIC and is reported in μg/ml.

S. aureus E33 [4] = test: as above; conditions: Staphylococcus aureus
Procedure: as §4, §5, §6

E. faecium L4001 [5] = test: as above; conditions: Enterococcus faecium
Procedure: as §4, §5, §6

S. aureus T17 [6] = test: Rate of spontaneous resistance; conditions: 10 × MIC
Procedure: (§7) Determination of the Rates of Spontaneous Resistance to S. aureus
(§8) The spontaneous resistance rates for the compounds of the invention are determined as follows: the bacterial microbes are cultivated in 30 ml of a minimal medium (18.5 mM Na2HPO4, 5.7 mM KH2PO4, 9.3 mM NH4Cl, 2.8 mM MgSO4, 17.1 mM NaCl, 0.033 μg/ml thiamine hydrochloride, 1.2 μg/ml nicotinic acid, 0.003 μg/ml biotin, 1% glucose, 25 μg/ml of each proteinogenic amino acid with the addition of 0.4% BH broth) at 37° C. overnight, centrifuged at 6000×g for 10 min and resuspended in 2 ml of phosphate-buffered physiological NaCl solution (about 2×10^9 microbes/ml). […] The resulting colonies (cfu) are counted.

S. aureus RN4220 = test: Rate of spontaneous resistance
Procedure: as §7, §8

S. aureus RN4220Bi^R = test: Rate of spontaneous resistance
Procedure: as §7, §8

S. aureus 133 = test: Rate of spontaneous resistance
Procedure: as §7, §8

E. faecium L4001 [7] = test: Rate of spontaneous resistance
E. faecalis ICB 27159 = test: Rate of spontaneous resistance; conditions: * = colonies with increased MIC (4-8-fold) were isolated
S. pneumoniae G9a = test: Rate of spontaneous resistance; conditions: 5 × MIC; * = colonies with increased MIC (4-8-fold) were isolated
[8] = E33, read-out: MIC S. aureus E33
[9] = L4001, read-out: MIC E. faecium L4001
[10] = T17, read-out: MIC S. aureus T17

Structure (SMILES) | MIC (S. aureus E33 [1]; [8]) [µM] | MIC (E. faecium L4001 [2]; [9]) [µM] | MIC (S. aureus T17 [3]; [10]) [µg/mL] | MIC (S. aureus E33 [4]; [8]) [µg/mL] | MIC (E. faecium L4001 [5]; [9]) [µg/mL] | Rate of spontaneous resistance S. aureus RN4220 (S. aureus RN4220; 10 × MIC) | Rate of spontaneous resistance S. aureus RN4220Bi^R (S. aureus RN4220Bi^R; 10 × MIC) | Rate of spontaneous resistance S. aureus 133 (S. aureus 133; 10 × MIC) | Rate of spontaneous resistance E. faecalis ICB 27159 (E. faecalis ICB 27159; 10 × MIC) | also measured
CN1C(=O)[C@H](C[C@@H](O)CN)NC(=O)[C@@H](N)Cc2cc(ccc2O)-c2ccc(O)c(c2)C[C@H]1C(=O)NCCN [Example 1, (8S,11S,14S)-14-amino-N-(2-aminoethyl)-11-[(2R)-3-amino-2-hydroxypropyl]-5,17-dihydroxy-9-methyl-10,13-dioxo-9,12-diazatricyclo[14.3.1.1.^2,6]henicosa-1(20),2(21),3,5,16,18-hexaene-8-carboxamide, trihydrochloride] | 3.1 | 12.5 | 4 | 4 | 16 | <6 × 10^−8 | <6 × 10^−8 | <4 × 10^−8 | – | Rate of spontaneous resistance S. aureus T17 (S. aureus T17 [6]): <4 × 10^−8
NCCC[C@@H]1NC(=O)[C@@H](N)Cc2cc(ccc2O)-c2ccc(O)c(c2)C[C@@H](C(=O)NCCN)NC1=O [Example 6, (8S,11S,14S)-14-amino-N-(2-aminoethyl)-11-(3-aminopropyl)-5,17-dihydroxy-10,1 3-dioxo-9,12-diazatricyclo[14.3.1.1^2,6]henicosa-1(20),2(21),3,5,16,18-hexaene-8-carboxamide] | 3.1 (≈ 1.55 µg/mL) | > 50 | 2 (≈ 4.01 µM) | 0.5 (≈ 1 µM) | 8 (≈ 16 µM) | <6 × 10^−9 | <4 × 10^−9 | <8 × 10^−9 | <4 × 10^−10* | Rate of spontaneous resistance E. faecium L4001 (E. faecium L4001 [7]; 5 × MIC): 4 × 10^−8; Rate of spontaneous resistance E. faecium L4001 (E. faecium L4001 [7]; 10 × MIC): <4 × 10^−9; Rate of spontaneous resistance E. faecalis ICB 27159 (E. faecalis ICB 27159; 5 × MIC): <4 × 10^−9*; Rate of spontaneous resistance S. pneumoniae G9a (S. pneumoniae G9a): <4 × 10^−8*; Rate of spontaneous resistance S. aureus RN4220 (S. aureus RN4220): <6 × 10^−9*; Rate of spontaneous resistance S. aureus RN4220Bi^R (S. aureus RN4220Bi^R): <8 × 10^−9*; Rate of spontaneous resistance S. aureus 133 (S. aureus 133): <8 × 10^−9*
NC[C@H](O)C[C@@H]1NC(=O)[C@@H](N)Cc2cc(ccc2O)-c2ccc(O)c(c2)C[C@@H](C(=O)O)NC1=O [Example 20A, 14(S)-Amino-1(S)-(3-amino-2(R)-hydroxypropyl)-5,17-dihydroxy-10,13-dioxo-9,12-diazatricyclo[14.3.1.1^2,6]henicosa-1(19),2,4,6(21),16(20),17-hexaene-8(S)-carboxylic acid dihydrochloride, reference compound] | – | – | – | – | – | – | – | <1.7 × 10^−6 | 4.1 × 10^−6 | MIC (S. aureus E33 [1]; E33, Table A, liquid dilution, 18-24 h, 37° C., read-out: MIC S. aureus E33): 0.1 µM; MIC (E. faecium L4001 [2]; L4001, Table A, liquid dilution, 10% FCS, 5% CO2, read-out: MIC E. faecium L4001): > 25 µM; MIC (S. aureus T17 [3]; T17, Table B, agar dilution, 20% defibrinated horse blood, read-out: MIC S. aureus T17): > 32 µg/mL; MIC (S. aureus E33 [4]; E33, Table B, agar dilution, 20% defibrinated horse blood, read-out: MIC S. aureus E33): < 0.03 µg/mL; MIC (E. faecium L4001 [5]; L4001, Table B, agar dilution, 20% defibrinated horse blood, read-out: MIC E. faecium L4001): 0.5 µg/mL
